Experimental data from patent US10980754B2, “Anti-fungal compounds” (SAINT LOUIS UNIVERSITY, priority 2016, dated 2021).
≈ marks a conversion by molar mass, not a printed value.

Tests used:
C. neoformans = assay: Fungicidal assay; assay type: cell-based; details: 48 hours exposure at 2×, 4× and 8× the MIC, spotted, 30° C. for 2 days
Experimental: To test for fungicidal activity, aliquots of cells were removed after 48 hours of growth in the presence of test compounds at 2×, 4×, and 8× the respective MICs and spotted them on YPD plates. The plates were incubated at 30° C. for 2 days and checked for growth. Growth of cells treated with test compounds was compared to FLC-treated cells, which is known to be fungistatic and to AMB-treated cells, which is known to be fungicidal (Klepser, et al., 1998; Mesa-Arango, et al., 2014).
compounds #54 and #284 were evaluated for fungicidal versus fungistatic activity. This analysis was done in a qualitative assay in parallel with FLC, which is known to be fungistatic (Klepser, et al., 1998) and AMB, which is known to be fungicidal (Mesa-Arango, et al., 2014). The MICs were 3 μM (0.9 μg/mL), 1.5 μM (1.4 μg/mL), 12 μM and 0.31 μM for FLC, AMB, #54 and #284 respectively. (FIGS. 8A & 8B).

[1] = tested on: C. neoformans var grubii, KN99; assay: Inhibition of C. neoformans growth, limiting dilution assay (MIC); assay type: cell-based; details: for MIC80 / MIC: Cryptococcus neoformans; for MIC80: KN99α, minimal concentration inhibiting 80% of growth relative to vehicle; for inhibition of C. neoformans growth: YNB-02+1% DMSO at 35° C., at 15 and 60 μM
Experimental: Strains and media. All inhibition assays were performed with C. neoformans var grubii, KN99 (serotype A, MATα; kindly provided by Jennifer Lodge). Two clinical strains of C. neoformans var grubii, serotype A, were kindly provided by Tamara Doering and Andre Spec. […] Each assay was done in triplicate and all values are the average of two or more independent assays. The data are presented as the average cell density as a percent of DMSO-only treated cells. […] However, these conditions are unlike conditions encountered by C. neoformans in mammalian infections, where nutrients are limited, and the pH and temperature are higher than in YPD media. The cryptococcal stress response to low glucose and high pH and temperature may alter its susceptibility to the inhibitors. It is also possible that the enzymes targeted by the inhibitors may render the cell temperature sensitive when inhibited. To better mimic growth in mammals, growth was tested without shaking in nutrient-limited media at 35° C. […] However, as the nutrient-limited media and higher temperature is more similar to mammalian cell growth conditions, these conditions were used for all further assays. […] All values were measured at least two times in independent experiments and the average MIC is reported.

KN99α cells [2] = assay: Growth inhibition in YPD+1% DMSO at 25° C.; assay type: cell-based, C. neoformans; details: at 60 μM
Experimental: FIGS. 5A & 5B. Inhibition of KN99α cells by β-thujaplicinol and β-thujaplicin under conditions (FIG. 5A) YPD at 25° C. and (FIG. 5B) YNB-02 at 35° C.
An assay was developed that could cheaply and reproducibly measure inhibition of C. neoformans growth using a 96-well format. C. neoformans growth was initially tested in YPD versus YPD+1% DMSO at 25° C. with shaking for 24 and 48 hours. […] However, these conditions are unlike conditions encountered by C. neoformans in mammalian infections, where nutrients are limited, and the pH and temperature are higher than in YPD media. The cryptococcal stress response to low glucose and high pH and temperature may alter its susceptibility to the inhibitors. It is also possible that the enzymes targeted by the inhibitors may render the cell temperature sensitive when inhibited. To better mimic growth in mammals, growth was tested without shaking in nutrient-limited media at 35° C. First, the cell culture media, RPMI-1640+0.4% glucose+1% DMSO (Sigma) as defined by National Committee for Clinical Laboratory Standards (NCCLS) was tested for anti-fungal susceptibility testing. However, the cells grew very poorly under these conditions. […] (FIG. 5A). However, as the nutrient-limited media and higher temperature is more similar to mammalian cell growth conditions, these conditions were used for all further assays.

[3] = Cytotoxicity in hepatoma cells (MTS); details: human, HepDES19 cells, CC50, HepDES19 cells, 72 hours, MTS
Experimental: HepDES19 cells (1.0×10^4 cells per well) were seeded in 96-well plates and incubated in DMEM with 10% fetal bovine serum (FBS) plus 1% penicillin and streptomycin, 1% nonessential amino acids, and 1% glutamine. The compounds were diluted in the medium at concentrations ranging from 0.78 to 100 μM plus 1% DMSO and added to the cells 48 hours after plating, with each concentration tested in triplicate. Cells were incubated with the compound for 72 hours and cytotoxicity was measured using a mitochondrial metabolic assay with MTS (Promega). The data were transformed to log[inhibitor] and fit to a 4-variable slope curve using GraphPad Prism (v6, www.graphpad.com).
Three days later, the MTS reagent was added for 90 minutes prior to terminating the incubation period and reading the OD480.

[4] = tested on: clinical strains of C. neoformans var grubii, serotype A; assay: MIC in two independent clinical strains; assay type: cell-based; details: Cryptococcus neoformans
Experimental: Strains and media. All inhibition assays were performed with C. neoformans var grubii, KN99 (serotype A, MATα; kindly provided by Jennifer Lodge). Two clinical strains of C. neoformans var grubii, serotype A, were kindly provided by Tamara Doering and Andre Spec. […] Cells were incubated without shaking for 48 hours at 35° C. and cell density was measured at […]. […] Each assay was done in triplicate and all values are the average of two or more independent assays. The data are presented as the average cell density as a percent of DMSO-only treated cells. MICs are reported as the minimal concentration needed to inhibit 80% of C. neoformans growth relative to vehicle-treated controls. Another thirty-seven of the molecules are αHTs (FIG. 4), which have a third contiguous oxygen atom on the troponoid ring.

[5] = tested on: C. neoformans var grubii, KN99; assay: Synergy (checkerboard) assay with Fluconazole or Amphotericin B; assay type: cell-based; details: in combination with either FLC or AMB
Experimental: Each assay was performed in triplicate and all values are the average of two or more independent assays. The fractional inhibitory concentration index (FICI) model is expressed as ΣFIC=FICA+FICB=MICA′/MICA+MICB′/MICB, where MICA, and MICB are the MIC values of agents A and B used alone and MICA′ and MICB′ are the MICs of agents A and B used in combination.

KN99α cells [6] = assay: Inhibition under capsule-inducing conditions (MIC); assay type: cell-based; details: Cryptococcus neoformans; YNB-02+1% DMSO, 37° C. with 5% CO2, 48 hours
Experimental: KN99α cells were grown overnight in YPD at 30° C. with shaking. […] Capsule was visualized using bright-field microscopy as a halo surrounding the yeast cell through India ink exclusion. The screening was conducted in the nutrient-limited media YNB-02 at 35° C. to mimic some aspects of the growth conditions in humans. […] The untreated cells grown in YNB-02 were able to elaborate the capsule (FIG. 7D) compared to cells grown overnight in YPD at 30° C. (FIG. 7C).

KN99α cells [7] = assay: MIC assays of hydrolysis products of #284 and p-benzoic acid; assay type: cell-based, C. neoformans; details: dilution series 0.19-50 μM, 48 hours at 35° C.
Experimental: FIG. 6. […] Values are mean±standard deviation from three replicates.
The solution was mixed by vortexing until a prominent color change (pale yellow to dark orange) was apparent. This reaction was performed in triplicate. One aliquot of the reaction mixture was stored at room temperature, one at 35° C., and one at 40° C. After 24 hours, the reaction mixtures were neutralized with HCl.
This would release a tropothione, possibly in multiple oxidation states, as well as p-benzoic acid, any of which could potentially act as inhibitors.

[8] = YNB-02+1% DMSO, 35° C., 48 hours
[9] = 48 h, measured alone, 80% of cells inhibited relative to vehicle, run with synergy and fungicidal assays

Molecule: C[C@@H]1[C@H](O)[C@@H](C)/C=C/C=C/C=C/C=C/C=C/C=C/C=C/[C@H](O[C@@H]2O[C@H](C)[C@@H](O)[C@H](N)[C@@H]2O)C[C@@H]2O[C@](O)(C[C@@H](O)C[C@@H](O)[C@H](O)CC[C@@H](O)C[C@@H](O)CC(=O)O[C@H]1C)C[C@H](O)[C@H]2C(=O)O [AMB, Amphotericin B]
- cell growth on YPD plates after drug exposure (C. neoformans): no cell growth

Molecule: CC(C)c1ccc(O)c(=O)c(O)c1 [Compound 46, β-thujaplicinol]
- MIC80 [1, 8]: 8 µM (≈ 1.44 µg/mL)
- MIC [1, 8]: ≤ 15 µM
- inhibition of C. neoformans growth [1]: some inhibition
- inhibition of C. neoformans growth (KN99α cells [2]): almost completely inhibited
- CC50 at 72 h [3]: 23 µM

Molecule: CC(C)c1cccc(=O)c(O)c1 [Compound 47, β-thujaplicin]
- MIC80 [1, 8]: 21 µM (≈ 3.45 µg/mL)
- inhibition of C. neoformans growth [1]: some inhibition
- inhibition of C. neoformans growth (KN99α cells [2]): almost completely inhibited
- CC50 at 72 h [3]: 66.5 µM

Molecule: O=c1ccccc(Br)c1O [Compound 54, 3-bromotropolone]
- MIC [4]: 6 to 12 µM (≈ 1.21 to 2.41 µg/mL)
- FIC index [5]: 2
- FIC value [5]: 1
- MIC [1, 9]: 12 µM
- MIC80 [1, 8]: 7 µM (≈ 1.41 µg/mL)
- MIC (KN99α cells [6]): 6 to 12 µM (≈ 1.21 to 2.41 µg/mL)
- CC50 at 72 h [3]: 95 µM

Molecule: OC(Cn1cncn1)(Cn1cncn1)c1ccc(F)cc1F [FLC, Fluconazole, reference compound]
- MIC [1, 9]: 3 µM
- MIC ([1]; measured alone, 80% of cells inhibited relative to vehicle, run with synergy and fungicidal assays): 0.9 µg/mL
- cell growth on YPD plates after drug exposure (C. neoformans): Significant cell growth

Molecule: p-benzoic acid
- MIC (KN99α cells [7]): > 50 µM
